Assay results taken from ChEMBL document CHEMBL4177767, “Discovery of N2-(4-Amino-cyclohexyl)-9-cyclopentyl- N6-(4-morpholin-4-ylmethyl-phenyl)- 9H-purine-2,6-diamine as a Potent FLT3 Kinase Inhibitor for Acute Myeloid Leukemia with FLT3 Mutations” (J Med Chem, 2018).

What was measured:
MV4-11 = assay: Growth inhibition of human MV4-11 cells after 72 hrs by calcein AM dye-based fluorescence assay; assay type: functional; settings: MV4-11, 72 h
[1] = molecular target: Receptor-type tyrosine-protein kinase FLT3 (Homo sapiens, UniProt P36888, ITD); assay: biochemical; assay type: cell-based, Sf9
Sequence of Receptor-type tyrosine-protein kinase FLT3 (P36888 whole entry, looked up, change not shown): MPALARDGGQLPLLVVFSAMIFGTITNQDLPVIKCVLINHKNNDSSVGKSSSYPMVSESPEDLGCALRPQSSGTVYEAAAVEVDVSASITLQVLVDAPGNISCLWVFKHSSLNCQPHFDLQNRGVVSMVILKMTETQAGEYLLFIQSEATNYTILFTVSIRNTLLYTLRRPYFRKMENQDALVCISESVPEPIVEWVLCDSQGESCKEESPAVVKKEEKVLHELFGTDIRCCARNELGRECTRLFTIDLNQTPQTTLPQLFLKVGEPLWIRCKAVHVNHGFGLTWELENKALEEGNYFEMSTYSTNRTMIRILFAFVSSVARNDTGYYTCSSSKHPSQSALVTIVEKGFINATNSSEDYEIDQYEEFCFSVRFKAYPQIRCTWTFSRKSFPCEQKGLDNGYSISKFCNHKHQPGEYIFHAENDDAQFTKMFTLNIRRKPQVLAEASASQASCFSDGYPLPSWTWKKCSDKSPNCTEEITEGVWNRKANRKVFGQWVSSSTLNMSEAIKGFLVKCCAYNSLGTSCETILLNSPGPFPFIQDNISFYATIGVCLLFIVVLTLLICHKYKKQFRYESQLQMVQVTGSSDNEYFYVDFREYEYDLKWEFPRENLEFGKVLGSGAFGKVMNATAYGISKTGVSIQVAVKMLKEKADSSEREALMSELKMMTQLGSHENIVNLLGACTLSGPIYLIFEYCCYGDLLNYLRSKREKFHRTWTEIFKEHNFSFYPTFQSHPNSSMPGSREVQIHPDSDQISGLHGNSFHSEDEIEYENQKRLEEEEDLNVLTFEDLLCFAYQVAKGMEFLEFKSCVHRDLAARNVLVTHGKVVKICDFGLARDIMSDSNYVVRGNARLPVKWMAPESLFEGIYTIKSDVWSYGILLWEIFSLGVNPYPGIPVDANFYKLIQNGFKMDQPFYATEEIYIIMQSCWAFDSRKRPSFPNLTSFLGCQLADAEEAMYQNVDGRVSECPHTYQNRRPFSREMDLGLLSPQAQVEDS
Description: Inhibition of N-terminal GST/His6-fused recombinant human FLT3 (R571 to S993 residues) ITD mutant expressed in Sf9 insect cells using poly (Ala,Glu,Lys,Tyr) 6:2:5:1 hydrobromide as substrate in presence of [gamma-33P]ATP

K562 = assay: cells; settings: Homo sapiens, K562, 72 h

| Structure (SMILES) | GI50 (MV4-11) [nM] | IC50 [1] [nM] | GI50 (K562) [nM] |
| --- | --- | --- | --- |
| COc1ccc(CNc2nc(Nc3ccc(CN4CCOCC4)cc3)c3ncn(C4CCCC4)c3n2)cc1 | 892 | 209 | 6690 |
| CC(O)CNc1nc(Nc2ccc(Br)cc2)c2ncn(C3CCCC3)c2n1 (configuration not stated) | 444 | 628 | > 25000 |
| CN1CCN(c2nc(Nc3ccc(Br)cc3)c3ncn(Cc4ccccc4)c3n2)CC1 | > 4000 | > 20000 | 3800 |
| CN1CCN(c2nc(Nc3ccc(Br)cc3)c3ncn(C4CCCCO4)c3n2)CC1 (configuration not stated) | 3200 | 4210 | 7130 |
| CC(O)CNc1nc(Nc2ccc(Cl)cc2)c2ncn(C3CCCC3)c2n1 (configuration not stated) | 235 | 1720 | 10900 |
| Brc1ccc(Nc2nc(N3CCOCC3)nc3c2ncn3Cc2ccccc2)cc1 | > 4000 | > 20000 | > 12500 |
| Brc1ccc(Nc2nc(N3CCOCC3)nc3c2ncn3C2CCCCO2)cc1 (configuration not stated) | 3880 | 1200 | 3740 |
| C[C@@H](CO)CNc1nc(Nc2ccc(Br)cc2)c2ncn(C3CCCC3)c2n1 | 1310 | 281 | 7630 |
| CC(O)CNc1nc(Nc2ccc(Br)cc2)c2ncn(Cc3ccccc3)c2n1 (configuration not stated) | > 4000 | 9850 | 9450 |
| c1cc(Nc2nc(N3CCCCC3)nc3c2ncn3C2CCCC2)ccc1CN1CCOCC1 | 701 | 50 | 11000 |
| CC(O)CNc1nc(Nc2ccc(Br)cc2)c2ncn(C(C)C)c2n1 (configuration not stated) | 1500 | 591 | 17800 |
| CC(O)CNc1nc(Nc2ccc(Br)cc2)c2ncn(C3CCCCO3)c2n1 (configuration not stated) | 2430 | 1140 | 27900 |
| N[C@H]1CC[C@H](Nc2nc(Nc3ccc(Br)cc3)c3ncn(Cc4ccccc4)c3n2)CC1 | 2290 | 798 | 3070 |

Compounds with a lower GI50 (MV4-11), results first:

| GI50 (MV4-11) [nM] | IC50 [1] [nM] | GI50 (K562) [nM] | Structure (SMILES) |
| --- | --- | --- | --- |
| 61 | 19 | 4470 | c1cc(Nc2nc(N3CCOCC3)nc3c2ncn3C2CCCC2)ccc1CN1CCOCC1 |
| 21 | 5 | 840 | N[C@H]1CC[C@H](Nc2nc(Nc3ccc(Cl)cc3)c3ncn(C4CCCC4)c3n2)CC1 |
| 157 | 47 | 2350 | OCCCNc1nc(Nc2ccc(CN3CCOCC3)cc2)c2ncn(C3CCCC3)c2n1 |
| 4 | 4 | 1300 | N[C@H]1CC[C@H](Nc2nc(Nc3ccc(N4CCOCC4)nc3)c3ncn(C4CCCC4)c3n2)CC1 |
| 181 | 70 | 5170 | N[C@H]1CC[C@H](Nc2nc(Nc3ccc(Br)cc3)c3ncn(C4CCCCO4)c3n2)CC1 (some centres not stated) |
| 7 | 10 | 1170 | CC(C)n1cnc2c(Nc3ccc(Br)cc3)nc(N[C@H]3CC[C@H](N)CC3)nc21 |
| 66 | 53 | 2740 | CN1CCN(c2nc(Nc3ccc(CN4CCOCC4)cc3)c3ncn(C4CCCC4)c3n2)CC1 |
| 17 | 6 | 700 | N[C@H]1CC[C@H](Nc2nc(Nc3ccc(N4CCN(Cc5ccccc5)CC4)cc3)c3ncn(C4CCCC4)c3n2)CC1 |
| 110 | 29 | 2000 | OCCNc1nc(Nc2ccc(CN3CCOCC3)cc2)c2ncn(C3CCCC3)c2n1 |
| 70 | 71 | > 25000 | c1cc(N2CCOCC2)ncc1Nc1nc(N2CCOCC2)nc2c1ncn2C1CCCC1 |
| 83 | 18 | 1450 | OCCCCNc1nc(Nc2ccc(CN3CCOCC3)cc2)c2ncn(C3CCCC3)c2n1 |
